# Experimental data as given in US20020091086A1, “Peptides that block viral infectivity and methods of use thereof” (priority 1999, published 2002).
# Read-outs that look alike come from different tables or passages of the source. Peptide text beside a SMILES is read from it.
# Tests used:
# [1] = test system: HIV-2; experiment: HIV-2 infectivity assay in H9 cells, RT activity in supernatant; type: cell-based; settings: for HIV-2 infection, result in words: summary of Experiments 1-3
# [2] = test system: HIV-1; settings: 100 μM, H9 cells
# Source text: (§1) In this example, the methods that were used to analyze the ability of various tripeptides to inhibit HIV-1, HIV-2, and SIV replication are disclosed. In Experiments 1 and 2, approximately 200,000 H9 cells were infected with HIV-1, HIV-2 or SIV at 25 TCID50 to test the inhibitory effect of the following synthesized tripeptides LKA-NH2, ILK-NH2, GPQ-NH2, GHK-NH2, GKG-NH2, ACQ-NH2, CQG-NH2, ARV-NH2, KAR-NH2, HKA-NH2, GAT-NH2, KAL-NH2, and GPG-NH2. Accordingly, the H9 cells were resuspended with or without the different peptides (approximately 100 μM) in 1 ml of RPMI 1640 medium supplemented with 10% (v/v) heat-inactivated fetal bovine serum (FBS), penicillin (100 u/ml), and streptomycin (100 u/ml), all available through GIBCO, and Polybrene (2 μg/ml), available through Sigma. Thereafter, viruses were added at 25 TCID50 in a volume of 20-30μl. Cells were incubated with virus at 37° C. for 1 hr then pelleted at 170×g for 7 minutes. The cells were then washed three times in RPMI medium without peptides at room temperature and pelleted at 170×g for 7 minutes, as above. After the final wash, the cells were resuspended in RPMI culture medium containing the peptides in a 24-well plate (Costar corporation) and were kept at 37° C. in 5% CO2 with humidity.
# (§2) Culture supernatants were collected and analyzed when the medium was changed at 4, 7, 10, and 14 days post infection. To monitor the replication of virus, reverse transcriptase (RT) activity in the supernatants was assayed using a commercially available Lenti-RT activity kit. (Cavidi Tech, Uppsala, Sweden). The amount of RT was determined with the aid of a regression line of standards. The results are presented as absorbance values (OD) and higher absorbance indicates a higher protein concentration and greater viral infection. Syncytium formation was also monitored by microscopic examination.
# [3] = test system: HIV-1; settings: H9 cells; for Day 10 RT HIV-1 (1:5): supernatant diluted 5-fold; for HIV-1 infection, result in words: summary of Experiments 1-5
# Source text: as §1, §2
# In Experiment 3, (Table 4), approximately 200,000 H9 cells were infected with HIV-1, HIV-2 or SIV at 25 TCID50 to test the inhibitory effect of different concentrations of peptides GPG-NH2, GKG-NH2 and CQG-NH2 and combinations of these peptides (the indicated concentration corresponds to the concentration of each tripeptide). As above, H9 cells were resuspended with or without the different peptides at varying concentrations in 1 ml of RPMI 1640 medium supplemented with 10% (v/v) heat-inactivated fetal bovine serum (FBS), penicillin (100 u/ml), and streptomycin (100 u/ml), and Polybrene (2 μg/ml). Thereafter, viruses were added at 25 TCID50 in a volume of 20-30 μl. Cells were incubated with the indicated virus at 37° C. for 1 hr then pelleted at 170×g for 7 minutes. The cells were then washed three times in RPMI medium without peptides at room temperature and pelleted at 170×g for 7 minutes, as above. After the final wash, the cells were resuspended in RPMI culture medium containing the peptides in a 24-well plate (Costar corporation) and kept at 37° C. in 5% CO2 with humidity.
# Culture supernatants were collected when the medium was changed at 4, 7, and 11 days post infection. As above, the replication of each virus was monitored by detecting reverse transcriptase (RT) activity in the supernatants using the Lenti-RT activity kit. (Cavidi Tech). The amount of RT was determined with the aid of a regression line of standards. The results are presented as absorbance values (OD) and higher absorbance indicates a higher protein concentration and greater viral infection.
# In Experiment 4, (Table 5) approximately 200,000 H9 cells were infected with HIV-1 at 25 TCID50 to test the inhibitory effect of different concentrations of peptides GPG-NH2, GKG-NH2 and CQG-NH2 and combinations of these peptides (the indicated concentration corresponds to the total concentration of tripeptide).
# [4] = test system: SIV; experiment: SIV infectivity assay in H9 cells, RT activity in supernatant; type: cell-based; settings: for SIV infection, result in words: summary of Experiments 1-3
# [5] = Experiment 3, 5 μM (of each tripeptide)
# [6] = Experiment 3, 20 μM (of each tripeptide)
# [7] = Experiment 4, 5 μM (total concentration of tripeptide)
# [8] = Experiment 4, 15 μM (total concentration of tripeptide)
compound,measurement,setting,value
cystyl-glutaminyl-glycine amide [CQG-NH2],Day 7 RT HIV-2,"[1]; Experiment 1, 100 μM",0.217 OD
same,Day 10 RT HIV-2,"[1]; Experiment 1, 100 μM",0.296 OD
same,Day 7 RT HIV-2,"[1]; Experiment 2, 100 μM",1.241 OD
same,Day 10 RT HIV-2,"[1]; Experiment 2, 100 μM",2.501 OD
same,Day 7 RT HIV-2,[1]; [5],1.760 OD
same,Day 10 RT HIV-2,[1]; [5],2.466 OD
same,Day 7 RT HIV-2,[1]; [6],1.748 OD
same,Day 10 RT HIV-2,[1]; [6],2.721 OD
same,Day 7 RT HIV-2,"[1]; Experiment 3, 100 μM",1.715 OD
same,Day 10 RT HIV-2,"[1]; Experiment 3, 100 μM",2.815 OD
same,"HIV-2 infection, result in words",[1],inhibit or prevent HIV-2 and SIV infection
same,HIV-1 Syncytia,[2]; Experiment 1,neg
same,HIV-1 Syncytia,[2]; Experiment 2,neg
same,Day 7 RT HIV-1,"[3]; Experiment 1, 100 μM",0.091 OD
same,Day 10 RT HIV-1,"[3]; Experiment 1, 100 μM",0.108 OD
same,Day 7 RT HIV-1,"[3]; Experiment 2, 100 μM",0.143 OD
same,Day 10 RT HIV-1,"[3]; Experiment 2, 100 μM",1.546 OD
same,Day 7 RT HIV-1,[3]; [5],1.547 OD
same,Day 10 RT HIV-1,[3]; [5],2.028 OD
same,Day 7 RT HIV-1,[3]; [6],1.578 OD
same,Day 10 RT HIV-1,[3]; [6],1.484 OD
same,Day 7 RT HIV-1,"[3]; Experiment 3, 100 μM",1.520 OD
same,Day 10 RT HIV-1,"[3]; Experiment 3, 100 μM",2.014 OD
same,Day 7 RT HIV-1,[3]; [7],2.991 OD
same,Day 10 RT HIV-1 (1:5),[3]; [7],1.459 OD
same,Day 7 RT HIV-1,[3]; [8],2.726 OD
same,Day 10 RT HIV-1 (1:5),[3]; [8],1.413 OD
same,Day 7 RT HIV-1,"[3]; Experiment 4, 45 μM",3.124 OD
same,Day 10 RT HIV-1 (1:5),"[3]; Experiment 4, 45 μM",1.364 OD
same,"HIV-1 infection, result in words",[3],inhibited and/or prevented HIV-1 infection
same,Day 7 RT SIV,"[4]; Experiment 1, 100 μM",0.747 OD
same,Day 10 RT SIV,"[4]; Experiment 1, 100 μM",0.110 OD
same,Day 7 RT SIV,"[4]; Experiment 2, 100 μM",0.120 OD
same,Day 10 RT SIV,"[4]; Experiment 2, 100 μM",1.761 OD
same,Day 7 RT SIV,[4]; [5],1.159 OD
same,Day 10 RT SIV,[4]; [5],2.821 OD
same,Day 7 RT SIV,[4]; [6],0.615 OD
same,Day 10 RT SIV,[4]; [6],2.158 OD
same,Day 7 RT SIV,"[4]; Experiment 3, 100 μM",0.795 OD
same,Day 10 RT SIV,"[4]; Experiment 3, 100 μM",2.286 OD
same,"SIV infection, result in words",[4],inhibit or prevent HIV-2 and SIV infection
"NCCCC[C@H](NC(=O)CN)C(=O)NCC(N)=O [GKG-NH2, glycyl-lysyl-glycine amide] (H-Gly-Lys-Gly-NH2)",Day 7 RT HIV-2,"[1]; Experiment 1, 100 μM",0.160 OD
same,Day 10 RT HIV-2,"[1]; Experiment 1, 100 μM",0.147 OD
same,Day 7 RT HIV-2,"[1]; Experiment 2, 100 μM",0.283 OD
same,Day 10 RT HIV-2,"[1]; Experiment 2, 100 μM",1.637 OD
same,Day 7 RT HIV-2,[1]; [5],1.769 OD
same,Day 10 RT HIV-2,[1]; [5],2.510 OD
same,Day 7 RT HIV-2,[1]; [6],1.759 OD
same,Day 10 RT HIV-2,[1]; [6],2.646 OD
same,Day 7 RT HIV-2,"[1]; Experiment 3, 100 μM",0.828 OD
same,Day 10 RT HIV-2,"[1]; Experiment 3, 100 μM",1.947 OD
same,"HIV-2 infection, result in words",[1],inhibit or prevent HIV-2 and SIV infection
same,HIV-1 Syncytia,[2]; Experiment 1,neg
same,HIV-1 Syncytia,[2]; Experiment 2,neg
same,Day 7 RT HIV-1,"[3]; Experiment 1, 100 μM",0.080 OD
same,Day 10 RT HIV-1,"[3]; Experiment 1, 100 μM",0.074 OD
same,Day 7 RT HIV-1,"[3]; Experiment 2, 100 μM",0.145 OD
same,Day 10 RT HIV-1,"[3]; Experiment 2, 100 μM",0.345 OD
same,Day 7 RT HIV-1,[3]; [5],1.587 OD
same,Day 10 RT HIV-1,[3]; [5],1.683 OD
same,Day 7 RT HIV-1,[3]; [6],1.616 OD
same,Day 10 RT HIV-1,[3]; [6],2.036 OD
same,Day 7 RT HIV-1,"[3]; Experiment 3, 100 μM",0.823 OD
same,Day 10 RT HIV-1,"[3]; Experiment 3, 100 μM",1.520 OD
same,Day 7 RT HIV-1,[3]; [7],3.303 OD
same,Day 10 RT HIV-1 (1:5),[3]; [7],1.287 OD
same,Day 7 RT HIV-1,[3]; [8],3.551 OD
same,Day 10 RT HIV-1 (1:5),[3]; [8],1.530 OD
same,Day 7 RT HIV-1,"[3]; Experiment 4, 45 μM",3.126 OD
same,Day 10 RT HIV-1 (1:5),"[3]; Experiment 4, 45 μM",0.410 OD
same,"HIV-1 infection, result in words",[3],inhibited and/or prevented HIV-1 infection
same,Day 7 RT SIV,"[4]; Experiment 1, 100 μM",0.421 OD
same,Day 10 RT SIV,"[4]; Experiment 1, 100 μM",0.099 OD
same,Day 7 RT SIV,"[4]; Experiment 2, 100 μM",0.116 OD
same,Day 10 RT SIV,"[4]; Experiment 2, 100 μM",0.204 OD
same,Day 7 RT SIV,[4]; [5],0.271 OD
same,Day 10 RT SIV,[4]; [5],1.709 OD
same,Day 7 RT SIV,[4]; [6],1.531 OD
same,Day 10 RT SIV,[4]; [6],2.482 OD
same,Day 7 RT SIV,"[4]; Experiment 3, 100 μM",1.005 OD
same,Day 10 RT SIV,"[4]; Experiment 3, 100 μM",1.382 OD
same,"SIV infection, result in words",[4],inhibit or prevent HIV-2 and SIV infection
